{
  "source": "patent US4841076A",
  "about": "“Benzopyran derivatives” (Daiichi Seiyaku Co., Ltd., priority 1986, dated 1989)",
  "key": {"male rats [1]": {"tested_on": "male rats", "test": "Uricosuric Activity (fractional excretion of uric acid)", "format": "in vivo", "conditions": "orally, 30 min urine from 60 min after dosing", "method": "Male rats weighing 150 to 250 g were fasted overnight and, the next morning, orally administered with either (1) 25 ml/Kg of physiological saline (control group) or (2) a test compound which was suspended in 0.5 wt % carboxymethylcellulose. After 60 minutes from the administration of the test compound, urine over a period of 30 minutes was collected. Thereafter, blood was taken from the arotid artery under anesthesia, and uric acid concentrations in the urine and the serum were determined by the enzyme method. On the other hand, […] concentrations in the urine and the serum were determined by a Jaffe's method to obtain the fractional excretion of uric acid. Percent of uric acid excretion was calculated by dividing the value of fractional excretion in the test group by that in the control group."}, "Acute toxicity (LD50)": {"test": "Acute toxicity (LD50)", "conditions": "rat, in vivo, po; P.O. in Rats", "source_text": "The compound of the present invention has a low toxicity, and the acute toxicity (LD50) of typical compounds of formula (I) is shown in the following Table 4."}, "hypertensive rats": {"tested_on": "hypertensive rats", "test": "Antihypertensive Activity (DOCA/saline hypertensive rats, tail cuff)", "format": "in vivo", "conditions": "DOCA hypertensive rats, orally once a day, systolic pressure vs control", "method": "Four-week-old male rats weighing 120 to 150 g were subcutaneously injected with DOCA (desoxycorticosterone acetate) and fed on a 1% saline solution to cause hypertension in accordance with the method of Seyle, et al. as described in American Heart Journal, Vol. 37, 1009 (1949). The test compound was orally administered to the hypertensive rats once a day for 4 weeks. The blood pressure of the animal was measured by a tail cuff method every one week from the start of the administration.\nIn Table 3, antihypertensive activity (ΔmmHg) was obtained by subtracting the systolic pressure of the test group from that of the control group."}, "male rats [2]": {"tested_on": "male rats", "test": "Diuretic Activity and Natriuretic Activity", "format": "in vivo", "conditions": "300 mg/Kg, orally, urine collected for 5 hours, control value subtracted", "method": "Male rats weighing 150 to 250 g were fasted overnight and, the next morning, orally administered with either (1) 25 ml/Kg of physiological saline (control group) or (2) a test compound which was suspended in 0.5 wt % carboxymethylcellulose. Urine after dosing was collected for 5 hours, and urinary volume and sodium concentration were measured. Each parameter was calculated by subtracting the value of the control group from that of the test group."}, "[3]": {"conditions": "in words, literature; cited from earlier work"}},
  "data": [
    {"smiles": "O=C(O)COc1cc(Cl)c2c(=O)c(-c3ccccc3)coc2c1", "note": "[(a), [(5-Chloro-4-oxo-3-phenyl-4H-1-benzopyran-7-yl)oxy]acetic acid]", "values": [
      {"measurement": "% of Uric Acid Excretion", "setting": "male rats [1]; 100 mg/Kg", "value": 136, "unit": "%"},
      {"measurement": "LD50", "setting": "Acute toxicity (LD50)", "value": 1020, "unit": "mg/kg"},
      {"measurement": "Antihypertensive Activity After 1 Week", "setting": "hypertensive rats; 100 mg/Kg", "value": "13.7 ΔmmHg"},
      {"measurement": "Antihypertensive Activity After 2 Weeks", "setting": "hypertensive rats; 100 mg/Kg", "value": "37.0 ΔmmHg"},
      {"measurement": "Antihypertensive Activity After 3 Weeks", "setting": "hypertensive rats; 100 mg/Kg", "value": "49.0 ΔmmHg"},
      {"measurement": "Increase in Urinary Na^+", "setting": "male rats [2]", "value": "1220 ΔμEq"},
      {"measurement": "Increase in Urinary Output", "setting": "male rats [2]", "value": "51.8 Δml/Kg"}
    ]},
    {"smiles": "O=C(O)COc1ccc(C(=O)c2cccs2)c(Cl)c1Cl", "note": "[Tienilic acid, [2,3-dichloro-4-(2-thenoyl)phenoxy]acetic acid, reference compound]", "values": [
      {"measurement": "% of Uric Acid Excretion", "setting": "male rats [1]; 200 mg/Kg", "value": 38, "unit": "%"},
      {"measurement": "Antihypertensive Activity After 1 Week", "setting": "hypertensive rats; 300 mg/Kg", "value": "23.6 ΔmmHg"},
      {"measurement": "Antihypertensive Activity After 2 Weeks", "setting": "hypertensive rats; 300 mg/Kg", "value": "35.0 ΔmmHg"},
      {"measurement": "Antihypertensive Activity After 3 Weeks", "setting": "hypertensive rats; 300 mg/Kg", "value": "44.3 ΔmmHg"},
      {"measurement": "Increase in Urinary Na^+", "setting": "male rats [2]", "value": "353.4 ΔμEq"},
      {"measurement": "Increase in Urinary Output", "setting": "male rats [2]", "value": "10.2 Δml/Kg"},
      {"measurement": "diuretic, saluretic and uricosuric activities", "setting": "[3]", "value": "having diuretic and uricosuric activities"}
    ]},
    {"smiles": "O=C(O)COc1cc(Cl)c2c(=O)c(-c3ccccc3Cl)coc2c1", "note": "[(c), {[5-Chloro-3-(2-chlorophenyl)-4-oxo-4H-1-benzopyran-7-yl]oxy}acetic acid]", "values": [
      {"measurement": "% of Uric Acid Excretion", "setting": "male rats [1]; 100 mg/Kg", "value": 36, "unit": "%"},
      {"measurement": "LD50", "setting": "Acute toxicity (LD50)", "value": 1410, "unit": "mg/kg"},
      {"measurement": "Antihypertensive Activity After 1 Week", "setting": "hypertensive rats; 100 mg/Kg", "value": "13.6 ΔmmHg"},
      {"measurement": "Antihypertensive Activity After 2 Weeks", "setting": "hypertensive rats; 100 mg/Kg", "value": "20.7 ΔmmHg"},
      {"measurement": "Antihypertensive Activity After 3 Weeks", "setting": "hypertensive rats; 100 mg/Kg", "value": "29.3 ΔmmHg"},
      {"measurement": "Increase in Urinary Na^+", "setting": "male rats [2]", "value": "1015 ΔμEq"},
      {"measurement": "Increase in Urinary Output", "setting": "male rats [2]", "value": "41.0 Δml/Kg"}
    ]},
    {"smiles": "Cc1cc(OCC(=O)O)cc2occ(-c3ccccc3)c(=O)c12", "note": "[(b), [(5-Methyl-4-oxo-3-phenyl-4H-1-benzopyran-7-yl)oxy]acetic acid]", "values": [
      {"measurement": "% of Uric Acid Excretion", "setting": "male rats [1]; 100 mg/Kg", "value": 66, "unit": "%"},
      {"measurement": "LD50", "setting": "Acute toxicity (LD50)", "value": 936, "unit": "mg/kg"},
      {"measurement": "Antihypertensive Activity After 1 Week", "setting": "hypertensive rats; 100 mg/Kg", "value": "10.0 ΔmmHg"},
      {"measurement": "Antihypertensive Activity After 2 Weeks", "setting": "hypertensive rats; 100 mg/Kg", "value": "17.9 ΔmmHg"},
      {"measurement": "Antihypertensive Activity After 3 Weeks", "setting": "hypertensive rats; 100 mg/Kg", "value": "15.0 ΔmmHg"},
      {"measurement": "Increase in Urinary Na^+", "setting": "male rats [2]", "value": "987 ΔμEq"},
      {"measurement": "Increase in Urinary Output", "setting": "male rats [2]", "value": "23.6 Δml/Kg"}
    ]},
    {"smiles": "Cc1ccccc1-c1coc2cc(OCC(=O)O)cc(Cl)c2c1=O", "note": "[(d), {[5-Chloro-3-(2-methylphenyl)-4-oxo-4H-1-benzopyran-7-yl]oxy}acetic acid]", "values": [
      {"measurement": "% of Uric Acid Excretion", "setting": "male rats [1]; 100 mg/Kg", "value": 56, "unit": "%"},
      {"measurement": "Antihypertensive Activity After 1 Week", "setting": "hypertensive rats; 100 mg/Kg", "value": "12.1 ΔmmHg"},
      {"measurement": "Antihypertensive Activity After 2 Weeks", "setting": "hypertensive rats; 100 mg/Kg", "value": "14.3 ΔmmHg"},
      {"measurement": "Antihypertensive Activity After 3 Weeks", "setting": "hypertensive rats; 100 mg/Kg", "value": "15.7 ΔmmHg"},
      {"measurement": "Increase in Urinary Na^+", "setting": "male rats [2]", "value": "1196 ΔμEq"},
      {"measurement": "Increase in Urinary Output", "setting": "male rats [2]", "value": "49.6 Δml/Kg"}
    ]},
    {"smiles": "CC1(c2ccccc2)Cc2cc(OCC(=O)O)c(Cl)c(Cl)c2C1=O", "note": "(centres unmarked) [indacrinone]", "values": [
      {"measurement": "diuretic, saluretic and uricosuric activities", "setting": "[3]", "value": "having diuretic and uricosuric activities"}
    ]},
    {"smiles": "O=C(O)COc1cc(Cl)c2c(=O)c(Cc3ccccc3)coc2c1", "note": "[(e), [(3-Benzyl-5-chloro-4-oxo-4H-1-benzopyran-7-yl)oxy]acetic acid]", "values": [
      {"measurement": "% of Uric Acid Excretion", "setting": "male rats [1]; 100 mg/Kg", "value": 39, "unit": "%"},
      {"measurement": "Antihypertensive Activity After 1 Week", "setting": "hypertensive rats; 100 mg/Kg", "value": "6.2 ΔmmHg"},
      {"measurement": "Antihypertensive Activity After 2 Weeks", "setting": "hypertensive rats; 100 mg/Kg", "value": "28.7 ΔmmHg"},
      {"measurement": "Antihypertensive Activity After 3 Weeks", "setting": "hypertensive rats; 100 mg/Kg", "value": "39.4 ΔmmHg"},
      {"measurement": "Increase in Urinary Na^+", "setting": "male rats [2]", "value": "967 ΔμEq"},
      {"measurement": "Increase in Urinary Output", "setting": "male rats [2]", "value": "37.9 Δml/Kg"}
    ]}
  ]
}
